For assay [1], the system named is nontypeable Haemophilus influenzae. To be noted: sialic acid 10 uM in plates, inhibitor 0.01-10 μM.
Protocol: Assay: Sialic acid 10 uM was incorporated into Brain Heart Infusion plates containing NAD and Hemin. The inhibitor was also added at 0.01 μM, 0.1 μM, 1 μM and 10 μM concentrations. Control plates were simultaneously prepared which lacked inhibitor. Results obtained from these plates represented the 100% sialic acid incorporation The inhibition assay was performed by plating 10^7 nontypeable Haemophilus influenzae onto each plate and allowed them to grow overnight in 5% CO2 at 37° C. After 16 hours, organisms were collected from the plate and separately diluted in distilled water to a density of 0.1 absorbance at 600 nm.
Analysis: These organisms were analyzed for sialic acid incorporation onto the surface of the organism. To accomplish this, one hundred microliters was placed in a microtiter well and allowed to dry overnight in a 37° C. dry incubator. The next day the plates were washed in a microtiter washer and 100 microliters of antibody 3F11 in TBS Tween-20 was placed in each well. Monoclonal antibody 3F11 binds the lactosamine epitope to which the sialic acid is attached. If sialic acid is present, 3F11 will not bind. If sialic acid is absent, 3F11 binds. The plates were then allowed to set at 37° C. in a moist chamber for two hours. The plates were washed and 100 microliters of a mouse anti-IgM phosphatase conjugate was added to each well. The plates was allowed to set in a 37° C. incubator for one hour. The plate was washed, and 100 microliters p-nitrophenol-phosphate was added to each well. The plate was allowed to set for 1 hour and the color reaction was read in a microtiter plate reader at an absorbance of 405 nm.
Assay [2] has as its system H. influenzae. The experiment in a line: Inhibition of sialylation of LOS. The format is cell-based. To be noted: found by the inventors.
Assay [3] deals with influenza A neuraminidase. To be noted: literature statement; cited from earlier work.
Assay [4] has as its target T1, SiaP (Haemophilus influenzae, UniProt P44542).
T1 construct: made in house; host or cells: E. coli (PET15 vector)
The experiment in a line: Biacore surface plasmon resonance, sialic acid binding to SiaP on CM5 sensor chip. Also on record: species or system H. influenzae. Conditions: for evidence of binding to SiaP: concentrations as high as 100 mM. On the procedure: Biacore® Analysis: Surface plasmon resonance analysis was performed to measure the affinity of binding of sialic acid to SiaP. These studies were performed on a Biacore® instrument using the CM5 sensor chip. SiaP was bound to the chip and increasing concentrations of sialic acid were introduced into the instrument. […] Increasing concentration of sialic acid up to 50 mM show minimal increase in binding. Based on the calculations from this analysis, an association constant of 1.7×10^7 M was calculated.

For the next assay, the target named is siaT (Haemophilus influenzae, UniProt P44542). The experiment in a line: Biacore analysis of Neu5Ac binding to siaT. Further details: species or system H. influenzae. Conditions: for binding to siaT: concentrations as high as 200 mM; for binding to siaP (summary statement): restates the Example 3 binding studies. An excerpt: In one embodiment, one can use the Biacore® screening method for molecules that bind to SiaT. Briefly, one uses a Biacore® instrument to measure bimolecular binding, establish a high throughput system to search for molecules which bind to SiaT or SiaP. SiaT expressing a His tag is bound to a sensor NTA chip in the Biacore® instrument. The Biacore® instrument measures binding events on the sensor chip surface, so that the interactant attached to the surface determines the specificity of the analysis. Testing the specificity of an interaction involves simply asking whether different molecules can bind to the immobilized interactant. Binding gives an immediate change in the SPR signal, so that it is directly apparent whether an interaction takes place or not. As sample is passed over the sensor surface, the progress of binding directly reflects the rate at which the interaction occurs. Injection of sample is followed by buffer flow during which the response reflects the rate of dissociation of the complex on the surface. Kinetic rate constants for the binding and dissociation can be obtained by fitting the results to mathematical descriptions of interaction models. Binding affinities can be obtained either from rate constant measurements (the dissociation constant KD is the ratio of the rate constants kd/ka for a 1:1 interaction) or by measuring the steady state level of binding as a function of sample concentration. The rate of binding of an interactant to a given surface is a function of the interactant concentration, so that measurements with the Biacore® instrument can be used to determine concentration of a specific substance in pure solution or in complex mixtures. The selectivity, dynamic range and other assay performance characteristics are determined largely by the choice of binding molecule attached to the surface. Thus, one can rapidly screen large number of candidate molecules for binding to the SiaT and develop information about rate of binding and dissociation constants. Molecules that have a high binding affinity and dissociate poorly are examined as candidates for study of inhibition of ^3H-sialic acid uptake by nontypeable H. influenzae.
siaT, sequence (P44542 24-329): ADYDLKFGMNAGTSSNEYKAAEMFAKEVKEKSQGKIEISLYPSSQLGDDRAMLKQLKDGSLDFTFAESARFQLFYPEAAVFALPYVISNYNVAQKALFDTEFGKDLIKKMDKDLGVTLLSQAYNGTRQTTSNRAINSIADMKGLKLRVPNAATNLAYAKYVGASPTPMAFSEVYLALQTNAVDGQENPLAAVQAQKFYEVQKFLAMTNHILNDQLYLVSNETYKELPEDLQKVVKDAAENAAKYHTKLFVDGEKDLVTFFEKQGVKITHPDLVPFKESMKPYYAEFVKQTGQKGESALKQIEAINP
The inventors performed Biacore® analysis of Neu5Ac binding to siaT (FIG. 19). […] Binding peaked at 22 mM and calculations estimated the kD of siaT for Neu5Ac to be 1.7×10^−8.
A general note: Surface plasmon resonance follows binding to a sensor surface in real time, without labels.

Assay [5] has as its target T1, SiaP. The experiment in a line: Isothermal titration calorimetry of SiaP with sialic acid. The format is binding, H. influenzae. To be noted: ITC. On the procedure: Calorimetry and Dynamic Light Scattering. Isothermal titration calorimetry (ITC) experiments were performed in order to determine the binding affinity of SiaP for sialic acid. […] Dynamic light scattering (DLS) experiments were performed to determine the hydrodynamic radius of SiaP with and without sialic acid. […] This was verified by two types of experiments. In the first experiment, excess sialic acid was incubated with SiaP for several hours before DLS experiments were performed. In the second, DLS was performed on protein taken from the calorimeter following an ITC experiment.
A general note: ITC needs no label: the signal is the heat of the interaction.

Assay [6] addresses T1, SiaP. The experiment in a line: Binding of 3H-labelled sialic acid to SiaP-Sepharose conjugate. To be noted: LuxS-Sepharose and Sepharose-only controls. Also on record: species or system H. influenzae. As to the method:
SiaP binds sialic acid. SiaP was overexpressed in a PET15 vector and purified to homogeneity from E. coli. It was then crosslinked to Sepharose® beads and the ability of the SiaP-Sepharose® conjugate to bind sialic acid was assessed using ^3H-labelled sialic acid. […] Non-specific binding was not observed in this system as evidenced by the LuxS-Sepharose® and Sepharose®-only controls (FIG. 26).

The target in the next assay is His-tagged siaP (Haemophilus influenzae, UniProt P44542). The experiment in a line: Binding of 3H-Neu5Ac to His-tagged siaP bound to a nickel affinity resin. Further details: species or system H. influenzae. Conditions: three experiments; controls His-tagged luxS resin and resin without protein. An excerpt: The inventors also determined whether ^3H-Neu5Ac would bind to His-tagged siaP bound to a nickel affinity resin. […] Two controls are included, the His-tagged luxS protein bound to a nickel affinity resin and nickel affinity with no protein bound to it.
His-tagged siaP, sequence (P44542 24-329): as above

Assay [7] concerns H. influenzae. To be noted: Goon et al. PNAS 100, 3089-3094; cited from earlier work.

The structures appear in SMILES notation.

T1 sequence (P44542 24-329): as above

On to `CC(=O)N[C@H]1[C@H]([C@H](O)[C@H](O)CO)O[C@@](Oc2ccc3c(C)cc(=O)oc3c2)(C(=O)[O-])C[C@@H]1O.O.[Na+]` [2′-(4-Methylumbelliferyl)-α-D-N-acetylneuraminic acid sodium salt hydrate], for which the “effect on Neu5Ac incorporation into H. influenzae” value (from here on “effect”) in assay [1] is “did not have any effect”.

With `CC(=O)N[C@H]1[C@H]([C@H](O)[C@H](O)CO)OC(O)(C(=O)O)C(F)[C@@H]1O` (stereo partly drawn) [3-fluorosialic acid, 3-fluoro-N-acetylneuraminic acid], in the assay with H. influenzae [2], the “inhibition of sialylation of LOS” value is listed as “highly effective”. Also, the “reduction of sialic acid uptake” value in [1] (NTHi strain 2019, versus no inhibitor) is given as 60%. In [3], the “inhibition of influenza A neuraminidase” value is “potent and specific inhibitors”.

For the compound `CC(=O)N[C@H]1[C@H]([C@H](O)[C@H](O)CO)OC(C(=O)O)=C[C@@H]1O` [DDNA, N-acetyl-2,3-didehydro-2-deoxyneuraminic acid], in [3], the “inhibition of influenza A neuraminidase” value is “potent and specific inhibitors”.

`CC(=O)N[C@H]1C(O)O[C@H](CO)[C@@H](O)[C@@H]1O` (stereo partly drawn) [N-acetylglucosamine]: on SiaP [4], the “evidence of binding to SiaP” value is given as “no evidence of binding”.

As for `CC(=O)N[C@@H]1C(O)O[C@H](CO)[C@@H](O)[C@@H]1O` (stereo partly drawn) [N-acetylmannosamine], at siaT (Biacore), the “binding to siaT” value was “no binding”. On siaT, the “binding to siaP (summary statement)” value is listed as “failed to bind”. At SiaP [4], the “evidence of binding to SiaP” value is “no evidence of binding”.

Regarding `CC(=O)N[C@H]1[C@H]([C@H](O)[C@H](O)CO)OC(O)(C(=O)O)C[C@@H]1O` (stereo partly drawn) [Neu5Ac, N-acetylneuraminic acid], the “n value calculated from the binding data” value on SiaP [5] is reported as “always less than one”. The Kd is 130 nM on SiaP [5] (three independent experiments) and 17 nM on siaT (Biacore, Neu5Ac 10 to 50 mM, estimated by calculation). Further, the “Neu5Ac concentration at which binding peaked” value on siaT (Biacore, Neu5Ac 10 to 50 mM) is given as 22 mM. Moreover, on siaT, the “binding to siaP (summary statement)” value is listed as “extremely high affinity”. Moreover, at SiaP [6], the “binding of sialic acid by SiaP-Sepharose” value is “capable of binding sialic acid”. For the same compound, on His-tagged siaP, the “binding of 3H-Neu5Ac to resin-bound protein” value is “bound only to the resin to which siaT was bound”. Besides, on SiaP [4] (up to 50 mM minimal further increase), the “sialic acid concentration up to which association with SiaP increased” value stood at 20 mM.

For the compound `CC(=O)N[C@H]1[C@H]([C@H](O)[C@H](O)CO)OC(C(=O)O)=C[C@@H]1N=C(N)N` [Relenza], the “effect” value in [1] is reported as “did not have any effect”. Also, in assay [3], the “inhibition of influenza A neuraminidase” value was “potent and specific inhibitors”.

Take `CCCCCCCC(=O)N[C@H]1C([C@H](O)[C@H](O)CO)OC(O)(C(=O)O)C[C@H]1O` (stereo partly drawn) [SiaOct]: the “inhibition of LOS sialylation” value with H. influenzae [7] is “inhibitor of LOS sialylation”.

Take `CCOC(=O)C1=C[C@@H](OC(CC)CC)[C@H](NC(C)=O)[C@@H](N)C1` [Tamiflu]: the “effect” value in [1] is “did not have any effect”. Also, the “inhibition of influenza A neuraminidase” value in assay [3] is “potent and specific inhibitors”.

For the compound `O=C(CO)[C@@H](O)[C@H](O)[C@H](O)CO` [fructose], the “binding to siaT” value on siaT (Biacore) was “no binding”.

Take `C[C@H](O)[C@@H](O)[C@@H](O)[C@H](O)C=O` [fucose]: the “binding to siaP (summary statement)” value at siaT was “failed to bind”.

With `O=C[C@H](O)[C@@H](O)[C@@H](O)[C@H](O)CO` [galactose], at siaT (Biacore), the “binding to siaT” value is reported as “no binding”. Moreover, the “binding to siaP (summary statement)” value at siaT was “failed to bind”. At SiaP [4], the “evidence of binding to SiaP” value was “no evidence of binding”.

In the case of `N[C@H]1C(O)O[C@H](CO)[C@@H](O)[C@@H]1O` (stereo partly drawn) [glucosamine], the “evidence of binding to SiaP” value at SiaP [4] was “no evidence of binding”.

On to `O=C[C@H](O)[C@@H](O)[C@H](O)CO` [xylose], for which the “binding to siaT” value at siaT (Biacore) was “no binding”. The “binding to siaP (summary statement)” value at siaT is recorded as “failed to bind”.

Broadly, the Kd is a measure of binding affinity in units of concentration.

These data come from patent publication US7413729B2, “Sialic acid permease system” (priority 2005, dated 2008).
